# Results from PMC4297217 (Therapeutic Drug Monitoring, 2015).
# Assays:
# [1] = Citalopram serum concentration-to-dose
# [2] = Escitalopram serum concentration-to-dose; details: patients aged 80 years; combined linear and square age model
# [3] = Sertraline serum concentration-to-dose; type: in vivo, patients; details: concomitant PPI vs control group without PPI
# [4] = with omeprazole, cited from earlier work
compound,measurement,setting,value
"CN(C)CCCC1(c2ccc(F)cc2)OCc2cc(C#N)ccc21 (stereo not drawn) [Citalopram, citalopram]","Citalopram C/D ratio, age effect","[1]; patients aged 80 years, combined linear and square age model",roughly doubled
"CN(C)CCC[C@@]1(c2ccc(F)cc2)OCc2cc(C#N)ccc21 [Escitalopram, escitalopram]","Escitalopram C/D ratio, age effect",[2],roughly doubled
"Cc1c(OCC(F)(F)F)ccnc1C[S+]([O-])c1nc2ccccc2[nH]1 (stereo not drawn) [Lansoprazole, lansoprazole]",Expected Sertraline C/D Ratio Percent Change,[3],no significant differences
"COc1ccc2[nH]c([S+]([O-])Cc3ncc(C)c(OC)c3C)nc2c1 (stereo not drawn) [Omeprazole, omeprazole]",Expected Sertraline C/D Ratio Percent Change,[3],no significant differences
same,increase in the concentration of R-citalopram,[4]; 9 healthy subjects,25%
same,increase in the concentration of S-citalopram,[4]; 9 healthy subjects,~2 fold
same,mean increase in the plasma concentration of escitalopram,[4]; healthy volunteers,~100%
"COc1ccnc(C[S+]([O-])c2nc3ccc(OC(F)F)cc3[nH]2)c1OC (stereo not drawn) [Pantoprazole, pantoprazole]",Expected Sertraline C/D Ratio Percent Change,[3],no significant differences
same,Expected Citalopram C/D Ratio Percent Change,[1]; concomitant PPI vs control group without PPI,No significant effect
